Test [1] deals with capsaicin-induced respiratory effects. In words: Antagonism of capsaicin aerosol induced respiratory effects in conscious guinea pigs (whole body plethysmography). Particulars: for DYSPNEA ONSET / MAXIMUM PRESSURE INCREASE (mmH2O) / SRE NUMBER*: mean and SEM; for SRE NUMBER*: number of coughs/gasps during 19 min exposure. It counts as in vivo, guinea pig. The method, then:
In vivo experiments were performed using male Duncan Hartley guinea pigs (250-350g). Changes in conscious breathing patterns were monitored in four animals simultaneously using modified whole body plethysmography consisting of four small plexiglass boxes each connected to a reference box via Validyne DP 45-16 differential pressure transducers. The 4 boxes were equipped with an air supply line (also used for aerosol delivery) and an exhaust air line. Supply and exhaust lines were of the same length and narrow bore and arose from a common supply chamber and vented to a common exhaust chamber. This system was used to ensure that fluctuations in supply air and atmospheric pressure would remain in phase and be eliminated from the net signal by the differential pressure transducers. The analog pressure signals were digitalized via a Data Translation DT2821 A to D board. Data were collected at a rate of 100 samples/second/animal. Each cycle of pressure change was analyzed using the following parameters: rising and falling slope determined between minimum and maximum pressures, the ratio of rising over falling slope, and the magnitude of the change between initial trough pressure and peak cycle pressure. Using these values (and observing the animals) the pressure cycles were characterized into normal breaths, forced exhalations (apparent by abdominal heaving), significant respiratory events (SREs; usually coughs, less often sneezes or gasps which were characterized by transient, extremely large pressure increases which were distinguishable from noise) and movement/noise with a PCAT 286 running a System V UNIX operating system. Dyspnea was defined as a significant, sustained increase in plethysmograph pressure which was associated with an observable shift to labored breathing in the animal.
During the course of a typical experiment in which airway responsiveness to various bronchoconstricting agents was examined, aerosols were delivered for 19 min (0.33 ml/min) using a DeVilbiss Ultraneb 99 ultrasonic nebulizer and animals monitored during this time. Prior to nebulization, 1 min of resting breathing was collected to establish a baseline pressure. […] The vehicle for nebulization of all bronchoconstrictive agents was phosphate buffered saline (pH 7.4) which elicited no respiratory effects itself. Putative tachykinin antagonists were administered either (i.v.) 20 min prior to onset of aerosol exposure or orally 1 hour prior to onset (to guinea pigs after an overnight fast).
Capsaicin aerosol is known to promote release of the tachykinins SP and NKA from sensory nerves in the airways of guinea pigs which may then act upon NK1 and NK2 receptors, respectively to elicit respiratory effects. […]
Values are mean and SEM of data derived from number of animals indicated in parenthesis. Putative tachykinin antagonists were administered intravenously 20 min prior to initiation of capsaicin aerosol (0.001%). *SRE number indicates the number of coughs/gasps which occurred during the 19 min capsaicin exposure period.
Values are mean and SEM of data derived from number of animals indicated in parenthesis. Putative tachykinin antagonists were administered by oral gavage 1 hr prior to initiation of capsaicin aerosol (0.001%). *SRE number indicates the number of coughs/gasps which occurred during the 19 min capsaicin exposure period.

Test [2] deals with SP-induced plasma protein extravasation. Put plainly: Antagonism of SP-induced plasma protein extravasation in guinea pig trachea (Evans Blue dye). The test is classed as in vivo. Particulars: Figure 2; i.v.; result in words. Here is the method: SP-induced protein leakage through postcapillary venules was assessed by measuring Evans Blue dye accumulation in guinea pig trachea. Animals were anesthetized with pentobarbital then injected with Evans Blue dye (20 mg/kg, i.v., prepared in 0.9% NaCl solution). One minute after dye administration, the antagonist was administered (i.v.) followed by SP (0.3 nmole/kg, i.v.) and, after 5 min, excess dye removed from the circulation by transcardiac perfusion with 50 ml 0.9% NaCl solution. The trachea and primary bronchi were removed, blotted dry and weighed. Dye quantitation was performed spectrophotometrically (620 nm) after extracting tissues in formamide for 24 hr at 50°C. Values were subtracted from background (dye only, no agonist). ED50 (dose of compound which inhibits SP-induced plasma protein extravasation by 50%) was calculated from linear regression analysis.
Values are mean (95% confidence limits). Compounds were injected intravenously 2 min prior to SP administration. ED50 values are based on at least 3 doses; at least 4 animals were used per dose.

Setting [3] is: 10 mg/kg intravenously 20 min prior to capsaicin aerosol (0.001%).
[4] abbreviates: 25 mg/kg by oral gavage 1 hr prior to capsaicin aerosol (0.001%).
Where [5] appears, read: 50 mg/kg by oral gavage 1 hr prior to capsaicin aerosol (0.001%).
The mark [6] stands for this setting: 100 mg/kg by oral gavage 1 hr prior to capsaicin aerosol (0.001%).

Counter-ions that a name gives are not always drawn.

Consider `COc1cc(C(=O)N2CCC(CCN3CCC(C(N)=O)(c4ccccc4)CC3)(c3ccc(Cl)c(Cl)c3)C2)cc(OC)c1OC` (racemic) [Example 3A, 1-[2-[3-(3,4-dichloro-phenyl-3-yl)-1-(3,4,5-trimethoxy-benzoyl)-pyrrolidin-3-yl]-ethyl] -4-phenyl-piperidine-4-carboxylic acid amide hydrochloride], for which, in test [1] (setting [3]), the “DYSPNEA INCIDENCE” value is recorded as 89% (7/8), the “DYSPNEA ONSET” value worked out at 480 ± 80 s, the “MAXIMUM PRESSURE INCREASE (mmH2O)” value is 0.83 ± 0.18 mmH2O and the “SRE NUMBER*” value stood at 8.50 ± 1.9. In test [1] (setting [4]), the “DYSPNEA INCIDENCE” value was 80% (8/10), the “DYSPNEA ONSET” value is 424 ± 120 s, the “MAXIMUM PRESSURE INCREASE (mmH2O)” value is given as 0.7 ± 0.2 mmH2O and the “SRE NUMBER*” value is on record as 4.6 ± 1.0. Further, in test [1] (setting [5]), the “DYSPNEA INCIDENCE” value is given as 70% (7/10), the “DYSPNEA ONSET” value stood at 434 ± 152 s, the “MAXIMUM PRESSURE INCREASE (mmH2O)” value is reported as 0.4 ± 0.1 mmH2O and the “SRE NUMBER*” value was determined as 2.8 ± 0.8. In addition, in test [1] (setting [6]), the “DYSPNEA INCIDENCE” value is on record as 50% (5/10), the “DYSPNEA ONSET” value came out at 360 ± 120 s, the “MAXIMUM PRESSURE INCREASE (mmH2O)” value turned out to be 0.4 ± 0.1 mmH2O and the “SRE NUMBER*” value is reported as 2.1 ± 0.5.

Turning to `COc1cc(C(=O)N2CCC(CCN3CCC(C(N)=O)(c4ccccc4)CC3)(c3ccc(Cl)c(Cl)c3)C2)cc(OC)c1OC` (centres unmarked) [Example 3, 1-[2-[3-(3,4-dichloro-phenyl)-1-(3,4,5-trimethoxy-benzoyl)-pyrrolidin-3-yl]-ethyl]-4-phenyl-piperidine-4-carboxylic acid amide], the “antagonism of SP-induced plasma protein extravasation in guinea pig trachea” value in test [2] is reported as “dose related antagonism”.
